According to patent US10112935B2, “Indazolyl thiadiazolamines and related compounds for inhibition of Rho-associated protein kinase and the treatment of disease” (Lycera Corporation, priority 2015, dated 2018):

Columns and labels:
[1] = biological target: GST-tagged human ROCK2 catalytic domain 1-553 (Homo sapiens (Human), UniProt O75116); test: Inhibition of Rho-associated protein kinase isoform 2 (LANCE Ultra ULight-CREBtide FRET kinase assay); format: biochemical; conditions: for IC50: 30 μM was the highest concentration analyzed; for Selectivity for ROCK2 over ROCK1 (IC50 ROCK1 / IC50 ROCK2): selectivity ROCK2 vs ROCK1
Outline: (§1)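 Baculovirus-expressed kinase phosphorylated ULight-CREBtide for 90 min at room temperature before the reaction was stopped with 10 mM EDTA. Phospho-substrate was detected by TR-FRET with 1 nM Europium-anti-phospho-CREB (Ser133) antibody after 60 min at room temperature.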

[2] = biological target: GST-tagged human ROCK1 catalytic domain 1-477 (Homo sapiens (Human), UniProt Q13464); test: Inhibition of Rho-associated protein kinase isoform 1 (LANCE Ultra ULight-CREBtide FRET kinase assay); format: biochemical; conditions: 30 μM was the highest concentration analyzed
Outline: as §1

GST-tagged human ROCK1 catalytic domain 1-477, sequence (Q13464 1-477): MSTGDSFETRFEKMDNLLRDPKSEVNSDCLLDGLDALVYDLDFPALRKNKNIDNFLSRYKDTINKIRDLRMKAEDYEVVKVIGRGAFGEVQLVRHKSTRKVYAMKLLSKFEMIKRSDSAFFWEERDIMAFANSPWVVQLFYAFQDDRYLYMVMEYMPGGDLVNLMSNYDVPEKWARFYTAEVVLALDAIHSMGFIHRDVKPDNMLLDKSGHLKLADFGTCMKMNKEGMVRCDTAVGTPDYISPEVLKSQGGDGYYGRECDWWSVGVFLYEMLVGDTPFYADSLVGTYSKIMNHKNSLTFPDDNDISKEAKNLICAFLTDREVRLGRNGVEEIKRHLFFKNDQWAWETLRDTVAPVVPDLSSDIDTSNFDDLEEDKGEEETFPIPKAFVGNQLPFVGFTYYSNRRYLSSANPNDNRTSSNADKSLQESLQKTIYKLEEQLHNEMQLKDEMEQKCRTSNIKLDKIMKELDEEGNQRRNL
GST-tagged human ROCK2 catalytic domain 1-553, sequence (O75116 1-553): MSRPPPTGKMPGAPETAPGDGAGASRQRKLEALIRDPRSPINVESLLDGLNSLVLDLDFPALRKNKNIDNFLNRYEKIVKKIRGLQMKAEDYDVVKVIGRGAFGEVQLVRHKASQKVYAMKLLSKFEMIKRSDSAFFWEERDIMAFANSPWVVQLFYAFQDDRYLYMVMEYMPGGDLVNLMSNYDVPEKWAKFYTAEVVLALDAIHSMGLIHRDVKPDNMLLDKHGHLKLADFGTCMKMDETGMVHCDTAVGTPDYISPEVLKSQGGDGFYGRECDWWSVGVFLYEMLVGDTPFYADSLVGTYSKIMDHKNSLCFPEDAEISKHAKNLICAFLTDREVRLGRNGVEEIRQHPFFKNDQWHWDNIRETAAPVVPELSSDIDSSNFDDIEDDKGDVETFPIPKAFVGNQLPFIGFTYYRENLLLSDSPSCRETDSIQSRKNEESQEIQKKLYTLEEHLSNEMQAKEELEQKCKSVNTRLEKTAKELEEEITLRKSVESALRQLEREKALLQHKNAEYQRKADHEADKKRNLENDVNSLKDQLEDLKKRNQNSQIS

| SMILES | IC50 [1] | Selectivity for ROCK2 over ROCK1 (IC50 ROCK1 / IC50 ROCK2) [1] | IC50 [2] |
| --- | --- | --- | --- |
| Clc1c(Nc2nnc(-c3cccn4cc(C5CCCN5)nc34)s2)ccc2[nH]ncc12 (stereo not drawn) [Example 50G] | < 1 µM | <5 | < 1 µM |
| Clc1c(Nc2nnc(-c3cccn4cc(C5CCNCC5)nc34)s2)ccc2[nH]ncc12 [Example 50H] | < 1 µM | >5 | 1 to 15 µM |
| CC(=O)c1ccc(-c2cn3cccc(-c4nnc(Nc5ccc6[nH]ncc6c5Cl)s4)c3n2)cc1 [Example 51, 1-(4-(8-(5-((4-Chloro-1H-indazol-5-yl)amino)-1,3,4-thiadiazol-2-yl)imidazo[1,2-a]pyridin-2-yl)phenyl)ethan-1-one] | < 1 µM | >100 | > 30 µM |
| CC(C)c1cn2cccc(-c3nnc(Nc4ccc5[nH]ncc5c4Cl)s3)c2n1 [Example 52B] | < 1 µM | <5 | < 1 µM |
| FC(F)(F)c1cn2cccc(-c3nnc(Nc4ccc5[nH]ncc5c4Cl)s3)c2n1 [Example 52C] | < 1 µM | >100 | > 30 µM |
| CCc1cn2cccc(-c3nnc(Nc4ccc5[nH]ncc5c4Cl)s3)c2n1 [Example 52D] | < 1 µM | >5 | < 1 µM |
| Clc1c(Nc2nnc(-c3cccn4cc(-c5ccc(Br)cc5)nc34)s2)ccc2[nH]ncc12 [Example 52E] | < 1 µM | >100 | > 30 µM |
| Brc1cc(-c2nnc(Nc3ccc4[nH]ncc4c3)s2)c2nccn2c1 [Example 52F] | < 1 µM | >100 | > 30 µM |
| Brc1ccc(-c2cn3cccc(-c4nnc(Nc5ccc6[nH]ncc6c5)s4)c3n2)cc1 [Example 52G] | < 1 µM | >100 | > 30 µM |
| CN(c1nnc(-c2cccc(NC(=O)Cc3ccc(C#N)cc3)c2)s1)c1ccc2[nH]ncc2c1Cl [Example 54B] | 15 to 30 µM | <5 | > 30 µM |
| Cc1cnn(CC(=O)Nc2cccc(-c3nnc(N(C)c4ccc5[nH]ncc5c4Cl)s3)c2)c1 [Example 54C] | 1 to 15 µM | <5 | 1 to 15 µM |
| CC(=O)Nc1cccc(-c2nnc(N(C)c3ccc4[nH]ncc4c3)s2)c1 [Example 54D] | 1 to 15 µM |  | 1 to 15 µM |
| COc1cccc(-c2nnc(N(CCO)c3ccc4[nH]ncc4c3)s2)c1 [Example 54E] | 15 to 30 µM |  | 15 to 30 µM |
| Clc1c(Nc2nnc(-c3cccc4[nH]c(-c5cccs5)nc34)s2)ccc2[nH]ncc12 [Example 56B] | < 1 µM | >100 | > 30 µM |
| CN1C(=O)Cc2cccc(-c3nnc(Nc4ccc5[nH]ncc5c4Cl)s3)c21 [Example 56C] | 1 to 15 µM | <5 | 1 to 15 µM |
| O=C1Cc2c(cccc2-c2nnc(Nc3ccc4[nH]ncc4c3Cl)s2)N1 [Example 56D] | < 1 µM | >100 | > 30 µM |
| O=C1Cc2cccc(-c3nnc(Nc4ccc5[nH]ncc5c4Cl)s3)c2N1 [Example 56E] | < 1 µM | >50 | > 30 µM |
| Cn1c(C2CCOCC2)nc2c(-c3nnc(Nc4ccc5[nH]ncc5c4)s3)cccc21 [Example 56F] | < 1 µM | >100 | > 30 µM |
| Cn1c(C2CC2)nc2c(-c3nnc(Nc4ccc5[nH]ncc5c4)s3)cccc21 [Example 56G] | < 1 µM | >100 | > 30 µM |
| Cn1cccc(-c2nnc(Nc3ccc4[nH]ncc4c3Cl)s2)c1=O.O=C(O)C(F)(F)F [Example 56H] | < 1 µM | >100 | > 30 µM |
| CCc1c(Nc2nnc(-c3cccc(NC(C)=O)c3)s2)ccc2[nH]ncc12 [Example 75C] | < 1 µM | >5 | < 1 µM |
| CN1CCN(C(=O)Nc2ccc(-c3nnc(Nc4ccc5[nH]ncc5c4Cl)s3)cc2)CC1 [Example 75D] | < 1 µM | >5 | < 1 µM |
| Clc1c(Nc2nnc(-c3cccc4c3OCCO4)s2)ccc2[nH]ncc12 [Example 75E] | > 30 µM |  | > 30 µM |
| CC(C)(O)CNC(=O)c1cccc(-c2nnc(Nc3ccc4[nH]ncc4c3Cl)s2)c1 [Example 75F] | < 1 µM | >5 | 1 to 15 µM |
